The subject of the assay is 327498-153-R-J2-PDC complex spheroid growth, % test/control. In words: Anticancer human tumor 327498-153-R-J2-PDC patient-derived uterine carcinosarcoma cell line growth inhibition [Asc]. The note with it: for viability, T/C: stronger effect = lower value. How it is done: Multicellular complex tumor spheroid response to apoptosis pathway targeting inhibitors Alrizomadlin, Pelcitoclax, and Dasminapant in combination with a variety of drugs and investigational agents in selected tumor cell lines
The MDM2 inhibitor alrizomadlin, the Bcl-2/Bcl-xL inhibitor pelcitoclax, and the IAPs inhibitor dasminapant were evaluated both individually and in combination with standard of care and investigational anticancer small molecules within a complex spheroid model of solid tumors. . Complex spheroids include a stromal component modeled by human endothelial cells (HUVEC) and fibroblasts modeled by human mesenchymal stem cells (MSCs). The concentration ranges selected for each drug and investigational agent were based upon clinically achievable concentrations if the clinical Cmax of the agent was known.
Compounds. The drugs and investigational agents: alrizomadlin (APG-115; NSC831270), pelcitoclax (APG-1252; NSC835773), dasminapant (APG-1387;NSC834197), TAK-243 (NSC785004), copanlisib (NSC809693), olaparib (NSC753686), talazoparib (NSC767125), cobimetinib (NSC 768068), eltanexor (KPT-8602, NSC 794443), abemaciclib (NSC 768073), sotorasib (NSC818433), adagrasib (NSC 831453), MRTX-1133 (NSC 836407), Iadademestat (ORY1001, NSC 806812), and RMC-4630 (NSC839698), were obtained from the NCI Developmental Therapeutics Program Chemical Repository. The FDA-approved anticancer drug set is available from the Developmental Therapeutics Program at https://dtp.cancer.gov/organization/dscb/obtaining/available plates.htm. […] The stock solutions were prepared in dimethyl sulfoxide (DMSO, Sigma-Aldrich, St. Louis, MO, cat. D2650) at 800-fold the tested concentration and stored at -70 degrees C prior to their use. All drugs and investigational agents were tested over a range starting from a high concentration at or near the clinical Cmax and decreasing in half-log increments. If the clinical Cmax for an agent had not been determined, the highest concentration tested was 10 microM.
The patient-derived cancer (PDC) cell lines include five colon adenocarcinomas: 186277-243-T-J2-PDC, 616215-338-R-J1-PDC, 439559-082-T-J2-PDC, 463943-066-T-J2-PDC, and 519858-162-T-J1-PDC; three pancreatic carcinomas: 323965-272-R-J2-PDC, 521955-158-R6-J3-PDC, and 521955-158-R2-J5-PDC; two uterine sarcomas: 327498-152-R-J2-PDC and 993429-296-R-J1-PDC; two rhabdomyosarcomas: 755483-174-R-J1-PDC and 772245-204-R-J1-PDC; two soft tissue sarcomas: 126254-015-R-J1-PDC and 494315-158-R-J1-PDC; two malignant fibrous histiocytomas: 317291-083-R-J1-PDC and 596521-263-R-J1-PDC; two breast carcinomas: 171881-019-R-J1-PDC and 885512-296-R-J2-PDC; and one ovarian carcinoma: 6556581-035-R-J-PDC were obtained from the NCI PDMR, (https://pdmr.cancer.gov). The established cell lines HSSY-2 synovial sarcoma (RRID:CVCL 8719), SYO-1 synovial sarcoma (RRID:CVCL_7146), MPNST malignant peripheral neural sheath tumor were obtained from the Sloan Kettering Institute. The following established cell lines were purchased from the American Type Culture Collection (ATCC, Manassas, VA), Sor the received from the NCI repository:, PANC-1 pancreatic carcinoma (CRL-1469, RRID:CVCL_0480), OVCAR-5 ovarian carcinoma (RRID:CVCL_1628), OVCAR-8 ovarian carcinoma (RRID:CVCL_1629), , MCF-7 breast carcinoma (CRL-12584, RRID:CVCL_0031), MDA-MB-231 breast carcinoma (CRL-12532, RRID:CVCL_0062), NCI-H1876 small cell lung carcinoma (CRL-5902, RRID:CVCL_1503), NCI-H510A small cell lung carcinoma (HTB-184, RRID:CVCL_1565), NCI-H1417 (CRL-5869, RRID:CVCL_1469), and NCI-H196 small cell lung carcinoma (CRL-5823, RRID:CVCL_1509). Dr. Peter Houghton (Greehey Children's Cancer Research Institute, University of Texas Health Science Center, San Antonio, TX) provided Rh-18 rhabdomyosarcoma (RRID:CVCL_1659). Pooled donor human umbilical vein endothelial cells (HUVEC, Lonza, cat. CC-2519) and human mesenchymal stem cells (hMSC, Lonza, cat. PT-2501) were purchased from Lonza (Walkersville, MD).
Cell Culture. […]

Where [1] appears, read: compound alone, run of 09/27/2022.

Values joined by “and” are separate entries in the source; they are usually repeats but may differ in a detail not shown here. Equal values may be shown once.
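Note: spheroids exposed to compound for 7 days after 3 days of growth.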
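Throughout, for viability, T/C: 100% = DMSO vehicle control wells.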

One may read the viability, T/C as the ratio of treated to control. For orientation: IC50 means the concentration that gives 50% inhibition. For the compound `C#Cc1c(F)ccc2cc(O)cc(-c3ncc4c(N5CC6CCC(C5)N6)nc(OCC56CCCN5CC(F)C6)nc4c3F)c12` (centres undefined), the viability, T/C (compound 0.0316 µM) is 108% and 96.6% and 89.6%; the viability, T/C (compound 0.1 µM) was 101% and 100% and 94%; the viability, T/C (compound 0.316 µM) is 101% and 82.7% and 90.7%; the viability, T/C (compound 1 µM) is 82.9% and 72.4% and 78.3%; the viability, T/C (compound 3.16 µM) is 69.9% and 64.9% and 68.1%; the viability, T/C (compound 10 µM) is 58% and 47.4% and 53.3%. Besides, for the setting “curve of compound”, the IC50 was > 10 µM and 8.78 µM.

Regarding `C=C(F)C(=O)N1CCN(c2nc(OCC3CCCN3C)nc3c2CCN(c2cccc4cccc(Cl)c24)C3)CC1CC#N` (centres undefined), the viability, T/C was 68.8% and 82.4% and 85% (compound 0.0316 µM); 61.8% and 69.6% and 74.7% (compound 0.1 µM); 56.1% and 67.6% and 66% (compound 0.316 µM); 48.2% and 59.2% and 62.2% (compound 1 µM); 19.4% and 14.3% and 24.8% (compound 3.16 µM); 0.22% and 0.23% and 0.25% (compound 10 µM). Also, the IC50 (curve of compound) was 0.654 µM and 1.24 µM and 1.27 µM.

Consider `C=CC(=O)N1CCN(c2nc(=O)n(-c3c(C)ccnc3C(C)C)c3nc(-c4c(O)cccc4F)c(F)cc23)C(C)C1` (centres undefined), for which the viability, T/C is, setting by setting: (compound 0.0316 µM) 79% and 84.1% and 96.8%; (compound 0.1 µM) 81.7% and 85.2% and 87.5%; (compound 0.316 µM) 63.5% and 71.4% and 76%; (compound 1 µM) 71.2% and 69.4% and 84.9%; (compound 3.16 µM) 66.3% and 67.2% and 77.7%; (compound 10 µM) 60.9% and 59.4% and 66%. Besides, the IC50 (curve of compound) was greater than 10 µM.

Turning to `CCN1C(C(=O)NC23CCC(C(=O)O)(CC2)CC3)C(c2cccc(Cl)c2F)C2(C(=O)Nc3cc(Cl)ccc32)C12CCCCC2` (centres undefined), the viability, T/C (compound 0.00949 µM) is 90.4% and 97.6%; the viability, T/C (compound 0.03 µM) is 88.7% [middle of 15 runs]; the viability, T/C (compound 0.0949 µM) was 74.7% [middle of 15 runs]; the viability, T/C (compound 0.3 µM) was 40.5% [middle of 15 runs]; the viability, T/C (compound 0.949 µM) was 11.1% [middle of 15 runs]; the viability, T/C (compound 3 µM) was 4% [middle of 15 runs]. Further, the IC50 runs as follows: under setting [1], 211 nM [middle of 13 runs]; (curve of compound) 0.174 µM and 0.252 µM.

For `CCN1CCN(Cc2ccc(Nc3ncc(F)c(-c4cc(F)c5nc(C)n(C(C)C)c5c4)n3)nc2)CC1`, the viability, T/C reads like this: (compound 0.00316 µM) 95% and 98.3% and 99.9%; (compound 0.01 µM) 82.9% and 85.2% and 108%; (compound 0.0316 µM) 78% and 88.9% and 94.2%; (compound 0.1 µM) 73.7% and 77.4% and 81.4%; (compound 0.316 µM) 70.5% and 69.2% and 73.2%; (compound 1 µM) 63.1% and 63.3% and 75.3%. Also, the IC50 (curve of compound) is greater than 1 µM.

For `CNC(C)C(=O)NC1CN(S(=O)(=O)c2cccc(S(=O)(=O)N3CCC4CCC(C(=O)NC(c5ccccc5)c5ccccc5)N4C(=O)C(NC(=O)C(C)NC)C3)c2)CCC2CCC(C(=O)NC(c3ccccc3)c3ccccc3)N2C1=O` (centres undefined), the viability, T/C reads like this: (compound 0.00316 µM) 95.8% and 104%; (compound 0.01 µM) 96.8% [middle of 15 runs]; (compound 0.0316 µM) 98.1% [middle of 15 runs]; (compound 0.1 µM) 99.2% [middle of 15 runs]; (compound 0.316 µM) 99.9% [middle of 15 runs]; (compound 1 µM) 96.2% [middle of 15 runs]. Besides, the IC50 is, setting by setting: (compound alone, run of 10/03/2022) greater than 1 µM; (curve of compound) greater than 1 µM.

On to `COc1c(OCCCN2CCOCC2)ccc2c3n(c(=NC(=O)c4cnc(N)nc4)nc12)CCN3`, for which the viability, T/C (compound 0.00316 µM) is 93.8% and 96.5% and 105%; the viability, T/C (compound 0.01 µM) was 92% and 91.4% and 97.5%; the viability, T/C (compound 0.0316 µM) was 71.2% and 78.3% and 85.6%; the viability, T/C (compound 0.1 µM) was 51.4% and 57.8% and 60.5%; the viability, T/C (compound 0.316 µM) is 23.9% and 27.6% and 26.7%; the viability, T/C (compound 1 µM) was 6.91% and 7.65% and 9.2%. Moreover, the IC50 (curve of compound) is 0.0999 µM and 0.131 µM and 0.14 µM.

Take `Cc1c(S(C)(=O)=O)c(-c2cc(F)cc(N3CCN(c4ccc(NS(=O)(=O)c5ccc(NC(CCN6CCC(C(=O)OCCCP(=O)(O)O)CC6)CSc6ccccc6)c(S(=O)(=O)C(F)(F)F)c5)cc4)CC3)c2)c(-c2ccc(Cl)cc2)n1C(C)C` (centres undefined): the viability, T/C was 94.6% [middle of 14 runs] (compound 0.1 µM); 96.1% [middle of 14 runs] (compound 0.316 µM); 94.4% [middle of 14 runs] (compound 1 µM); 90.3% [middle of 14 runs] (compound 3.16 µM); 166% [middle of 14 runs] (compound 10 µM). Besides, the IC50 under setting [1] is greater than 10 µM.

For `Cc1nc(N2CCC3(CC2)COC(C)C3N)c(CO)nc1Sc1ccnc(N)c1Cl` (centres undefined), the viability, T/C (compound 0.00949 µM) is 98.2% and 101% and 93%; the viability, T/C (compound 0.03 µM) was 94% and 88.4% and 87.5%; the viability, T/C (compound 0.0949 µM) is 86.9% and 73.2% and 77%; the viability, T/C (compound 0.3 µM) was 76.2% and 64.7% and 71.6%; the viability, T/C (compound 0.949 µM) is 65.4% and 58.5% and 56.2%; the viability, T/C (compound 3 µM) is 49.8% and 40.1% and 52.5%. In addition, the IC50 (curve of compound) is > 3 µM and 1.4 µM.

In the case of `Cn1ncnc1[C@H]1c2n[nH]c(=O)c3cc(F)cc(c23)N[C@@H]1c1ccc(F)cc1`, the viability, T/C is 95.8% and 103% and 101% (compound 0.000316 µM); 93.7% and 105% and 94% (compound 0.001 µM); 88.7% and 110% and 91.1% (compound 0.00316 µM); 61.8% and 77.4% and 65.8% (compound 0.01 µM); 28.1% and 33.8% and 26.1% (compound 0.0316 µM); 12.9% and 16.1% and 13.9% (compound 0.1 µM). Moreover, the concentration for half-maximal inhibition (IC50) (curve of compound) was 0.0151 µM and 0.0205 µM and 0.0158 µM.

For `NC(=O)C(=Cn1cnc(-c2cc(C(F)(F)F)cc(C(F)(F)F)c2)n1)c1cncnc1`, the viability, T/C was 89.1% and 91.1% and 101% (compound 0.000949 µM); 102% and 93.5% and 96.2% (compound 0.003 µM); 83.6% and 84.6% and 93.2% (compound 0.00949 µM); 71.5% and 61.5% and 78% (compound 0.03 µM); 14.8% and 17.4% and 17.2% (compound 0.0949 µM); 3.13% and 3.94% (compound 0.3 µM). The half-inhibitory concentration (IC50) (curve of compound) is 0.0459 µM and 0.0401 µM and 0.0509 µM.

For `NC1CCC(NC2CC2c2ccccc2)CC1` (centres undefined), the viability, T/C was 101% and 116% and 107% (compound 0.000316 µM); 97.7% and 101% and 104% (compound 0.001 µM); 104% and 101% and 98.6% (compound 0.00316 µM); 96.9% and 103% and 106% (compound 0.01 µM); 96.4% and 105% and 96.6% (compound 0.0316 µM); 89.5% and 98.1% and 92.1% (compound 0.1 µM). The IC50 (curve of compound) was greater than 0.1 µM.

With `O=C(c1cc(Cc2n[nH]c(=O)c3ccccc23)ccc1F)N1CCN(C(=O)C2CC2)CC1`, the viability, T/C was 86.5% and 104% and 109% (compound 0.0316 µM); 89.6% and 99.6% and 105% (compound 0.1 µM); 92.9% and 93.8% and 98% (compound 0.316 µM); 78.8% and 89.2% and 93.4% (compound 1 µM); 58.8% and 71.2% and 71.8% (compound 3.16 µM); 18.3% and 19.8% and 20.8% (compound 10 µM). Further, the IC50 (curve of compound) was 4.01 µM and 5.01 µM and 5.13 µM.

`O=C(c1ccc(F)c(F)c1Nc1ccc(I)cc1F)N1CC(O)([C@@H]2CCCCN2)C1`: the viability, T/C is 96.9% and 101% and 95.2% (compound 0.00316 µM); 96.2% and 95.5% and 92.5% (compound 0.01 µM); 88.3% and 78.5% and 90.8% (compound 0.0316 µM); 81% and 66.6% and 80.8% (compound 0.1 µM); 60.5% and 59.8% and 60.2% (compound 0.316 µM); 27.1% and 21.9% and 27.9% (compound 1 µM). Besides, the IC50 (curve of compound) is 0.456 µM and 0.339 µM and 0.455 µM.

Source of the values: PubChem BioAssay AID1963424 (Molecular Pharmacology Branch, DTP, NCI, 2024).
